Test results as given in ChEMBL document CHEMBL4265965, “Dichloroacetophenones targeting at pyruvate dehydrogenase kinase 1 with improved selectivity and antiproliferative activity: Synthesis and structure-activity relationships” (Bioorg Med Chem Lett, 2018).
Active and inactive are the calls of the source. The rule behind the calls is not given here.

Key:
NCI-H1975 [1] = assay: Antiproliferative activity against human NCI-H1975 cells assessed as inhibition of cell proliferation at 6 uM after 72 hrs by MTT assay relative to control; format: functional; details: NCI-H1975, 72 h
[2] = molecular target: [Pyruvate dehydrogenase (acetyl-transferring)] kinase isozyme 1, mitochondrial (Homo sapiens, UniProt Q15118); assay: Inhibition of recombinant human N-terminal His6/Sumo-tagged PDK1 (29 to 436 residues) expressed in Escherichia coli BL21 at 1 uM by kinase-glo luminescence assay relative to control
A549 [3] = assay: Antiproliferative activity against human A549 cells assessed as inhibition of cell proliferation at 2 uM after 72 hrs by MTT assay relative to control; format: functional; details: for inhibition at 2 µM: A549, 72 h
NCI-H1650 [4] = assay: Antiproliferative activity against human NCI-H1650 cells assessed as inhibition of cell proliferation at 2 uM after 72 hrs by MTT assay relative to control; format: functional; details: for inhibition at 2 µM: NCI-H1650, 72 h
NCI-H1650 [5] = assay: Antiproliferative activity against human NCI-H1650 cells assessed as inhibition of cell proliferation at 6 uM after 72 hrs by MTT assay relative to control; format: functional; details: for inhibition at 6 µM: NCI-H1650, 72 h
NCI-H1650 [6] = assay: Antiproliferative activity against human NCI-H1650 cells assessed as inhibition of cell proliferation at 12 uM after 72 hrs by MTT assay relative to control; format: functional; details: for inhibition at 12 µM: NCI-H1650, 72 h
A549 [7] = assay: Antiproliferative activity against human A549 cells assessed as inhibition of cell proliferation at 6 uM after 72 hrs by MTT assay relative to control; format: functional; details: A549, 72 h
NCI-H1975 [8] = assay: Antiproliferative activity against human NCI-H1975 cells assessed as inhibition of cell proliferation at 2 uM after 72 hrs by MTT assay relative to control; format: functional; details: NCI-H1975, 72 h
A549 [9] = assay: Antiproliferative activity against human A549 cells assessed as inhibition of cell proliferation at 12 uM after 72 hrs by MTT assay relative to control; format: functional; details: A549, 72 h
NCI-H1975 [10] = assay: Antiproliferative activity against human NCI-H1975 cells assessed as inhibition of cell proliferation at 12 uM after 72 hrs by MTT assay relative to control; format: functional; details: NCI-H1975, 72 h

Row | Structure (SMILES) | inhibition at 6 µM (NCI-H1975 [1]) | inhibition [2] | inhibition (A549 [3]) | inhibition at 2 µM (NCI-H1650 [4]) | inhibition at 6 µM (NCI-H1650 [5]) | inhibition at 12 µM (NCI-H1650 [6]) | inhibition at 6 µM (A549 [7]) | inhibition at 2 µM (NCI-H1975 [8]) | inhibition at 12 µM (A549 [9]) | inhibition at 12 µM (NCI-H1975 [10]) | inhibition at 2 µM (A549 [3]) | inhibition (NCI-H1650 [4]) | inhibition (NCI-H1650 [5]) | inhibition (NCI-H1650 [6])
1 | CCCCc1ccc(C(=O)C(Cl)Cl)cc1[N+](=O)[O-] | 65.2% | inactive | inactive | 22.3% | 57.2% | 97.5% | 12% | 39.8% | 56.9% | 100% |  |  |  | 
2 | CCCc1ccc(C(=O)C(Cl)Cl)cc1[N+](=O)[O-] | 69.5% | inactive | inactive | 29.8% | 60.2% | 99.8% | 8.9% | 31.5% | 65.2% | 99.8% |  |  |  | 
3 | CCc1ccc(C(=O)C(Cl)Cl)cc1 | 97.6% | 44% |  | 30.7% | 79.1% | 99.3% | 81.4% | 55.4% | 92.8% | 96.5% | 31.5% |  |  | 
4 | O=C(c1ccccc1I)C(Cl)Cl | 90.8% | inactive | inactive | 21% | 57.1% | 99.4% | 7.8% | 28.6% | 41.2% | 96.5% |  |  |  | 
5 | O=C(c1ccccc1F)C(Cl)Cl | 12.8% | inactive | inactive |  |  |  | 10.1% | 4.4% | 13.6% | 48.6% |  | inactive | inactive | inactive
6 | O=C(c1ccc(Cl)c([N+](=O)[O-])c1)C(Cl)Cl | 99.8% | 41.7% |  | 96.3% | 100% | 100% | 86.7% | 98.4% | 99.8% | 100% | 34.7% |  |  | 
7 | Cc1ccccc1C(=O)C(Cl)Cl | 69.8% | inactive |  | 27.2% | 46.7% | 69.6% | 62.2% | 39.8% | 79.8% | 93% | 23.7% |  |  | 
8 | Cc1cc(C(=O)C(Cl)Cl)ccc1Cl | 97.8% | 10.2% |  | 38.8% | 79.7% | 98.8% | 51.7% | 46.7% | 81% | 99.2% | 13.2% |  |  | 
9 | O=C(c1ccc(Cl)c(Cl)c1)C(Cl)Cl | 95.8% | inactive |  | 54% | 92.7% | 100% | 74.5% | 74.1% | 96.7% | 98.4% | 42.1% |  |  | 
10 | CCOc1ccc(C(=O)C(Cl)Cl)cc1 | 89% | 19.7 to 67.9% |  | 22.3% | 50.4% | 90.2% | 31.6% | 22.6% | 80.9% | 98.6% | 18.9% |  |  | 
11 | Cc1ccc(C(=O)C(Cl)Cl)cc1[N+](=O)[O-] | 89.5% | 50.5% |  | 15.4% | 69.8% | 94.6% | 67.8% | 15.8% | 89.5% | 99.7% | 12.6% |  |  | 
